Source: ChEMBL document CHEMBL4138254 (ACS Med Chem Lett, 2017)

Target: T1, Autotaxin (Rattus norvegicus, UniProt Q64610)
Test: Inhibition of recombinant rat ATX using LPC 18:1 as substrate after 2 hrs by rapidfire/MS-based analysis
Conditions: not given

Compound | IC50 [nM]
O=C(NC[C@@H]1[C@H]2CN(C(=O)CCc3cc(Cl)cc(Cl)c3)C[C@@H]12)c1ccc2[nH]c(=O)oc2c1 | 2.3
N#Cc1cc(COC(=O)N2C[C@@H]3[C@@H](CNC(=O)NCCCc4cnn[nH]4)[C@@H]3C2)cc(C(=O)OC(F)(F)F)c1 | 5.5
CC(C)(C)OC(=O)N1CCCC(COC(=O)N2C[C@@H]3[C@@H](CNC(=O)c4ccc5[nH]c(=O)oc5c4)[C@@H]3C2)C1 (stereo partly specified) | 49
CC(OC(=O)N1C[C@@H]2[C@@H](CNC(=O)c3ccc4[nH]c(=O)oc4c3)[C@@H]2C1)c1cc(Cl)cc(Cl)c1 (stereo partly specified) | 66.9

Target: T1, Autotaxin
Test: Inhibition of ATX in rat whole blood using LPA 17:0 as substrate after 1 hr by LC-MS/MS analysis
Conditions: not given

Compound | IC50 [nM]
O=C(CCN1CCN(C(=O)OCc2cc(Cl)cc(Cl)c2)CC1)c1ccc2[nH]c(=O)oc2c1 | 307
O=C(NC[C@@H]1[C@H]2CN(C(=O)CCc3cc(Cl)cc(Cl)c3)C[C@@H]12)c1ccc2[nH]c(=O)oc2c1 | 7
N#Cc1cc(COC(=O)N2C[C@@H]3[C@@H](CNC(=O)NCCCc4cnn[nH]4)[C@@H]3C2)cc(C(=O)OC(F)(F)F)c1 | 65
CC(C)(C)OC(=O)N1CCCC(COC(=O)N2C[C@@H]3[C@@H](CNC(=O)c4ccc5[nH]c(=O)oc5c4)[C@@H]3C2)C1 (stereo partly specified) | 6.9
CC(OC(=O)N1C[C@@H]2[C@@H](CNC(=O)c3ccc4[nH]c(=O)oc4c3)[C@@H]2C1)c1cc(Cl)cc(Cl)c1 (stereo partly specified) | 208

Target: Voltage-gated inwardly rectifying potassium channel KCNH2 (Homo sapiens, UniProt Q12809)
Sequence (Q12809 whole entry): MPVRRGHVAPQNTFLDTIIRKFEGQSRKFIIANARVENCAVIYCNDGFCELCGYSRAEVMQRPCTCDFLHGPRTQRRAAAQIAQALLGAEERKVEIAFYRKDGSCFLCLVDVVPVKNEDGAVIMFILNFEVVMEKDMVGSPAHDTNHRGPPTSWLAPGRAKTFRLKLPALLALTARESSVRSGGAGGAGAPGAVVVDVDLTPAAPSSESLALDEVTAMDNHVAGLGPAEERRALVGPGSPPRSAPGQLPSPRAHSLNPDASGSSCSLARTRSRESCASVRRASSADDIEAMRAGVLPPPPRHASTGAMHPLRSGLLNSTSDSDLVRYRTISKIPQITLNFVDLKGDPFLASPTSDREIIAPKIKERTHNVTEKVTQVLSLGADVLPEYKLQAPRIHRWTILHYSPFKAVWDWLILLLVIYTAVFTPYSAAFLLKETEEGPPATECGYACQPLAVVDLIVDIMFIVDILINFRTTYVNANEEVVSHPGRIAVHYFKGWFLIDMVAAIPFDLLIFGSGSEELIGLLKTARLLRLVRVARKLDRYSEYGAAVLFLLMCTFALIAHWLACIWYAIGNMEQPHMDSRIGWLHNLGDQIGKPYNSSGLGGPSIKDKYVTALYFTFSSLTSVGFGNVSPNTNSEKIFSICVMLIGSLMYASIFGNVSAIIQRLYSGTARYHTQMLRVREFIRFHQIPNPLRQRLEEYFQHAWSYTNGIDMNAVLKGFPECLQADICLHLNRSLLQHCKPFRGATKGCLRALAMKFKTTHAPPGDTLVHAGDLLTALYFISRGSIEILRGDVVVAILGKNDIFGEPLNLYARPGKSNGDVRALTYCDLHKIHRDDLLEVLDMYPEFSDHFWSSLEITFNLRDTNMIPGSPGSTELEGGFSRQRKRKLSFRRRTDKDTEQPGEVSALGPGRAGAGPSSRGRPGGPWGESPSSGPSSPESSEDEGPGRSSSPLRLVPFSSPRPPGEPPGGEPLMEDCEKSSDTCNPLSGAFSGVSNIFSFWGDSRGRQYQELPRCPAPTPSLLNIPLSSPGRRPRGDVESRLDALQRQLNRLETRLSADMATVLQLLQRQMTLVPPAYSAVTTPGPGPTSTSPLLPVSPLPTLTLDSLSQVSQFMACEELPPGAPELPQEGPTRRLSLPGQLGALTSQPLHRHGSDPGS
Test: not given
Conditions: not given

Compound | IC50 [nM]
O=C(CCN1CCN(C(=O)OCc2cc(Cl)cc(Cl)c2)CC1)c1ccc2[nH]c(=O)oc2c1 | 480
O=C(NC[C@@H]1[C@H]2CN(C(=O)CCc3cc(Cl)cc(Cl)c3)C[C@@H]12)c1ccc2[nH]c(=O)oc2c1 | 8100

System: not listed separately
Test: physchem
Conditions: pH 2.2 buffer solution
Description: Aqueous solubility of the compound in pH 2.2 buffer solution after 24 hrs by LC-UV analysis

Compound | solubility at 24 h [µg/mL]
O=C(NC[C@@H]1[C@H]2CN(C(=O)CCc3cc(Cl)cc(Cl)c3)C[C@@H]12)c1ccc2[nH]c(=O)oc2c1 | < 1
CC(OC(=O)N1C[C@@H]2[C@@H](CNC(=O)c3ccc4[nH]c(=O)oc4c3)[C@@H]2C1)c1cc(Cl)cc(Cl)c1 (stereo partly specified) | < 1

System: not listed separately
Test: physchem
Conditions: pH 4.5 buffer solution
Description: Aqueous solubility of the compound in pH 4.5 buffer solution after 24 hrs by LC-UV analysis

Compound | solubility at 24 h [µg/mL]
O=C(NC[C@@H]1[C@H]2CN(C(=O)CCc3cc(Cl)cc(Cl)c3)C[C@@H]12)c1ccc2[nH]c(=O)oc2c1 | < 1
CC(OC(=O)N1C[C@@H]2[C@@H](CNC(=O)c3ccc4[nH]c(=O)oc4c3)[C@@H]2C1)c1cc(Cl)cc(Cl)c1 (stereo partly specified) | < 1

System: not listed separately
Test: physchem
Conditions: pH 6.8 buffer solution
Description: Aqueous solubility of the compound in pH 6.8 buffer solution after 24 hrs by LC-UV analysis

Compound | solubility at 24 h [µg/mL]
O=C(NC[C@@H]1[C@H]2CN(C(=O)CCc3cc(Cl)cc(Cl)c3)C[C@@H]12)c1ccc2[nH]c(=O)oc2c1 | < 1
CC(OC(=O)N1C[C@@H]2[C@@H](CNC(=O)c3ccc4[nH]c(=O)oc4c3)[C@@H]2C1)c1cc(Cl)cc(Cl)c1 (stereo partly specified) | < 1

System: not listed separately
Test: in vitro
Conditions: human, liver microsomes
Description: Clearance in human liver microsomes at 1 uM in presence of NADPH by LC-MS/MS analysis relative to hepatic blood flow

Compound | hepatic extraction ratio at 1 µM
O=C(NC[C@@H]1[C@H]2CN(C(=O)CCc3cc(Cl)cc(Cl)c3)C[C@@H]12)c1ccc2[nH]c(=O)oc2c1 | 0.94

System: not listed separately
Test: in vitro
Conditions: rat, liver microsomes
Description: Clearance in rat liver microsomes at 1 uM in presence of NADPH by LC-MS/MS analysis relative to hepatic blood flow

Compound | hepatic extraction ratio at 1 µM
O=C(NC[C@@H]1[C@H]2CN(C(=O)CCc3cc(Cl)cc(Cl)c3)C[C@@H]12)c1ccc2[nH]c(=O)oc2c1 | 0.88

System: not listed separately
Test: in vitro
Conditions: human, Caco-2
Description: Apparent permeability across apical to basolateral side in human Caco2 cells at 10 uM measured up to 90 mins

Compound | Papp A→B at 1.5 h, 10 µM [×10⁻⁶ cm/s]
O=C(NC[C@@H]1[C@H]2CN(C(=O)CCc3cc(Cl)cc(Cl)c3)C[C@@H]12)c1ccc2[nH]c(=O)oc2c1 | 18
CC(OC(=O)N1C[C@@H]2[C@@H](CNC(=O)c3ccc4[nH]c(=O)oc4c3)[C@@H]2C1)c1cc(Cl)cc(Cl)c1 (stereo partly specified) | 118
